Assay results from patent publication US20200345662A1, “MUSCULAR ATROPHY-INDUCING AGENT USING HYPOMETABOLISM-INDUCING SUBSTANCE T1AM, AND USE THEREOF IN TREATING MUSCULAR HYPERTROPHY” (UNIVERSITY INDUSTRY FOUNDATION, YONSEI […] CAMPUS, priority 2015, published 2020).

What was measured:
[1] = test system: Akt1; assay: Immunoblotting analysis of p-Akt1 and Akt1 in C2C12 myotubes; type: cell-based; conditions: T1AM-treated group vs control
Experimental: (§1) C2C12 myoblasts were purchased from American Type Culture Collection (Rockville, Md., USA) and cultured in a DMEM medium containing 4,500 mg/L glucose supplemented with 10% fetal bovine serum (Hyclone, Logan, Utah, USA) and 1% antibiotics/antimycotics Gibco, Burlington, Ontario, Canada). The myoblasts were stored under conditions of 37° C. and 5% CO2. The myoblasts were grown on a 6-well culture plate for immunoblot analysis and measurement of diameters of myotubes. The myoblasts were maintained in each well for 5 days by replacing the medium with a differentiation medium (DMEM containing 2% horse serum and 1% antibiotics/antimycotics) at about 80% confluent state and induced to be differentiated into myotubes. The medium was replaced with a new medium every two days.
(§2) The cells were obtained with a RIPA buffer, degraded by repeated suction through a 21 gauge needle, and the transferred to a 1.5 mL microtube. A sample was cultured on ice for 5 minutes and centrifuged at 13,000 rpm at 4° C. for 10 minutes. A supernatant was obtained with whole-cell soluble lysates and the protein concentration was determined through Bradford assay. To detect AMPK, phospho-AMPK (p-AMPK), FoxO1, p-FoxO1, FoxO3, p-FoxO3, Akt1, p-Akt1, S6K, p-S6K, MuRF1, MAFbx, HSP90, HSP72, HSP60, HSP27, αB-crystallin, and GAPDH, a total of 30 μg of proteins was electrophoresed on 8 to 10% SDS-PAGE.
(§3) The proteins were electrophoretically transferred from the gel to a nitrocellulose membrane. The membrane reacted with a blocking buffer (1X TBS, 0.5% Tween-20 with 5% w/v nonfat dry milk) for 1 hour at room temperature and then washed with 10 mL TBST three times every 10 minutes. Thereafter, the membranes reacted with a primary antibody diluted appropriately with 10 mL TBST (1:500 to 1:10,000) overnight at 4° C. […] An immunocomplex was detected by the ECL system (GE Healthcare, Fairfield, Conn., USA) and the obtained bands were quantified by ImageJ 1.47t software (NIH, MD, USA). […]

[2] = test system: C2C12 myotubes; assay: Measurement of diameter (size) of C2C12 myotubes; type: cell-based; conditions: 75 μM of T1AM for 6 hours
Experimental: as §1
To verify the effect of T1AM on the size of C2C12 myotubes, the cells were fixed with 4% paraformaldehyde and photographed at 200× magnification on an Axiovert 200 optical microscope. For analysis, the cells were divided into 9 fractions in order to randomly select the cells. The diameter of each myotube was measured using Image J software (NIH, Frederick, Md., USA).
To determine whether T1AM induced muscular atrophy in C2C12 myotubes, cells were photographed under a phase contrast microscope (FIG. 1A) and the diameter was measured at 200× magnification (FIG. 1B).

[3] = test system: AMPK; assay: Immunoblotting analysis of p-AMPK and AMPK in C2C12 myotubes; type: cell-based; conditions: T1AM-treated group vs control
Experimental: as §1, §2, §3

[4] = test system: HSP60; assay: Immunoblotting analysis of HSP60 in C2C12 myotubes; type: cell-based; conditions: T1AM-treated group vs control
Experimental: as §1
(§4) The cells were obtained with a RIPA buffer, degraded by repeated suction through a 21 gauge needle, and the transferred to a 1.5 mL microtube. A sample was cultured on ice for 5 minutes and centrifuged at 13,000 rpm at 4° C. for 10 minutes. A supernatant was obtained with whole-cell soluble lysates and the protein concentration was determined through Bradford assay. […]
(§5) The proteins were electrophoretically transferred from the gel to a nitrocellulose membrane. […] An immunocomplex was detected by the ECL system (GE Healthcare, Fairfield, Conn., USA) and the obtained bands were quantified by ImageJ 1.47t software (NIH, MD, USA). […]

[5] = test system: MAFbx; assay: Immunoblotting analysis of MAFbx in C2C12 myotubes; type: cell-based; conditions: T1AM treatment vs control
Experimental: as §1, §4, §5

[6] = test system: FoxO3; assay: Immunoblotting analysis of p-FoxO3 and FoxO3 in C2C12 myotubes; type: cell-based; conditions: T1AM-treated group vs control
Experimental: as §1, §2
as §3, with “minutes.” for “minutes. Thereafter, the membranes reacted with a primary antibody diluted appropriately with 10 mL TBST (1:500 to 1:10,000) overnight at 4° C.”
(§6) The cells on each 6-well plate were washed three times with 1× PBS and fixed with 4% paraformaldehyde for 30 minutes at room temperature. […] Fluorescent-labeled cells were detected with a Carl Zeiss LSM750 confocal microscope (Jena, Germany).

[7] = test system: heat shock protein 72 (HSP72); assay: Immunoblotting analysis of HSP72 in C2C12 myotubes; type: cell-based; conditions: T1AM-treated group vs control
Experimental: as §1, §4, §5

[8] = test system: 26S proteasome; assay: Chymotrypsin-like activity of 26S proteasome, cell-based luminescence assay; conditions: C2C12 myotubes, T1AM-treated group vs control
Experimental: Two groups of myotubes were trypsinized and then washed with a fresh differentiation medium. Among three determinants of proteasome activities (trypsin-, chemotrypsin- and caspase-like activities), the chemotrypsin-like activity is regarded as representative of the protease capacity of the proteasome. The chemotrypsin-like activity was determined according to the manufacturer's protocol using a Promega Proteasome-Glo cell-based luminescence assay kit (Promega, Madison, Wis., USA) by approximately 7,500 cells measured by a cell counter (Biorad, Hercules, Calif., USA) in 50 μl of the differentiation medium. To confirm the specificity of the analysis, a partial sample containing the same number of cells was pretreated with a proteasome inhibitor, epoxomicin, at a concentration of 10 μM for 30 minutes. The chemotrypsin-like activity was measured by the same process and the result was used as a background signal for analysis. The luminescence was measured with a GloMax 20/20 Luminometer (Promega).

[9] = test system: αB-crystallin; assay: Immunoblotting analysis of αB-crystallin in C2C12 myotubes; type: cell-based; conditions: T1AM-treated group vs control
Experimental: as §1, §4, §5

[10] = test system: MuRF1; assay: Immunoblotting analysis of MuRF1 in C2C12 myotubes; type: cell-based; conditions: T1AM-treated group vs control
Experimental: as §1, §4, §5

[11] = test system: S6K; assay: Immunoblotting analysis of p-S6K and S6K in C2C12 myotubes; type: cell-based
Experimental: as §1, §4, §5

[12] = test system: FoxO1; assay: Immunoblotting analysis of p-FoxO1 and FoxO1 in C2C12 myotubes; type: cell-based; conditions: T1AM-treated group vs control
Experimental: as §1, §2
as §3, with “minutes.” for “minutes. Thereafter, the membranes reacted with a primary antibody diluted appropriately with 10 mL TBST (1:500 to 1:10,000) overnight at 4° C.”
as §6

## NCCc1ccc(Oc2ccc(O)cc2)c(I)c1 [T1AM, 3-iodothyronamine]
[1]
  expression ratio of p-Akt1/Akt1, lower than control: 0.45 times
  non-phosphorylation level of Akt1 between the two groups: similar
  phosphorylation level of Akt1 compared to the control: significantly down-regulated
[2]
  size of myotube, decrease compared to vehicle control: 0.13 times
[3]
  AMPK phosphorylation, increase compared to the control: 2.7 times
  expression ratio of p-AMPK/AMPK, higher than control: 2.0 times
  total expression levels of AMPK, between the two groups: similar
[4]
  difference in HSP60 expression between the two groups: not statistically significant
[5]
  expression of MAFbx: not affected
[6]
  expression ratio of p-FoxO3/FoxO3, lower than control: 0.39 times
  p-FoxO3 level, lowered: 0.58 times
  total expression of FoxO3 between T1AM-treated group and control: not different
[7]
  expression level of HSP72, down-regulated compared to the control: 0.89 times
[8]
  chymotrypsin-like activity of proteasome, higher than control: 1.5 times
[9]
  expression level of αB-crystallin, down-regulated compared to the control: 0.63 times
[10]
  expression of MuRF1, higher than control: 1.8 times
[11]; T1AM treatment vs control
  p-S6K level: lowered
[11]; T1AM-treated group vs control
  expression ratio of p-S6K/S6K, lower than control: 0.53 times
[12]
  expression ratio of p-FoxO1/FoxO1, lowered: 0.66 times
  phosphorylation level of FoxO1 between the two groups: similar
  total expression of FoxO1, higher than control: 2.5 times
